These results are taken from patent publication US20240292836A1, “AGENTS FOR REPELLING, KNOCKING DOWN, AND/OR KILLING BLOOD-SUCKING ARTHROPODS AND USES THEREOF” (The United States of America, as represented by the …, priority 2023, published 2024).

Test [1] deals with female Aedes aegypti adults. Kind of test: High-throughput in vitro screening assay, spatial repellency. In kind it is in vivo. The conditions noted are these: for 30-minute RD50 compared with that of DEET: 30 minutes, α = 0.05; for RD50 (30 min), half-repellent dose / RD50 (60 min), half-repellent dose: dose per filter paper surface area, 95% CI; for spatial repellency (in words): highest-tested dose of 100 μg/cm^2. An excerpt:
A high-throughput screening method for evaluating spatial repellency and vapor toxicity, described by Jiang S., et al. (2019, “High-Throughput Screening Method for Evaluating Spatial Repellency and Vapour Toxicity to Mosquitoes,” Med. Vet. Entomol. 33: 388-396), was used for this study. As shown in FIG. 2 of Jiang S., et al., assay tubes were constructed by covering 12.5 cm glass tubes on one side with netting secured by a rubber band. The tubes were used in horizontal orientation. Adult mosquitos 2-7 days old were anesthetized on ice for approximately 5 minutes and 16 females were transferred to each tube. The other end of the tube was then closed with netting and a rubber band.
The conical ends of 50 mL centrifuge tubes (Eppendorf, Enfield, Connecticut, USA) were cut at approximately the 10 mL mark to create the end caps for the assay tubes. […] For repellency tests, filter papers for the “untreated” side of the assay tube received pure acetone, whereas filter papers for the “treated” side received acetone solution containing a dissolved compound of interest. For knockdown tests, both filter papers were treated with acetone solution containing one or more compounds of interest. Acetone on both filter papers served as negative controls.
For repellency assays, filter papers were given 10 minutes of evaporation time before being placed into the end caps with forceps (Jiang S., et al. 2019, Supra). For knockdown assays, filter papers were given 5 minutes of evaporation time before being placed into the end caps. […] Assay tubes were capped such that the cap securely overlapped the glass but approximately 5 mm of space was left between the netting and the filter paper so that the mosquitos could not contact the filter paper.
Assay tubes were placed on a white polystyrene platform with wooden sticks glued flatly across it to prevent the tubes from rolling. A straight black line was drawn down the center of the platform and assay tubes were centered on the line at the beginning of the tests. In repellency assays, data were collected at 15, 30, and 60 minutes after the end caps were placed on the assay tubes. Assay tubes were not disturbed for the entire 60 minutes. At each time point, the number of mosquitos that remained on the treated side was visually assessed and recorded. The treated side was alternated with each set of tests. For repellency tests, DEET at a dose of 100 μg/cm^2 served as the positive control.
For the high-throughput in vitro screening assays, analyses were conducted with R version 4.2.2 statistical software (R Core Team, 2022, “R: a language and environment for statistical computing. R foundation for statistical computing,” Vienna, Austria). Concentrations were calculated in terms of filter paper surface area (μg/cm^2) for repellency assays and in terms of assay tube volume (μg/cm^3) for knockdown assays.
Half-repellent (RD50), half-knockdown (KD50), and half-lethal (LD50) doses were calculated from dose-response curves (DRCs) obtained by four-parameter log-logistic equation models generated using the drc package (Dose Response Curve Analyses Software; Ritz C. et al., 2015, “Dose-response analysis using R,” PLOS ONE 10: e0146021). For repellency test analysis, the upper and lower asymptotes for the proportion of mosquitos remaining on the treated side were fixed at 0.5 and 0, respectively. For KD and mortality test analysis, the upper and lower asymptotes for the proportion of mosquitos knocked down or killed were fixed at 1.0 and 0, respectively. To determine whether RD50, KD50, or LD50 values differed across compounds at each timepoint, a joint model assuming different values for each compound and a null model that assumed a single value for all compounds were compared with a likelihood ratio test.

Test [2] deals with female Aedes aegypti adults. The experiment in a line: High-throughput in vitro screening assay, knockdown and mortality. The conditions noted are these: for KD50 (30 min), half-knockdown dose / KD50 (60 min), half-knockdown dose: dose per assay tube volume, 95% CI; for knockdown and mortality activities (in words): in vivo; for time at which knockdown began: FIG. 6A, 6B, 6D.
Test [3] concerns female Aedes aegypti adults. The experiment in a line: Arm-in-cage cloth-patch in vivo assay (topical repellency). The conditions noted are these: for Minimum Effective Dose (MED): Mean ± SEM, lowest dosage with five or fewer bites through repellent-treated cloth in 1-minute exposure, at least three volunteers; for topical repellency (in words): initial screening dose of 0.187 mg/cm^2. An excerpt:
Arm-in-Cage Test Cloth-Patch in vivo Assay Pyrethroid-susceptible yellow fever mosquitoes Ae. aegypti (Orlando strain) were reared in the United States Department of Agriculture Mosquito and Fly Research Unit in Gainesville, FL under standard protocols. Three to seven-day-old, starved female mosquitoes were collected using a “draw box” (Posey, K. and Schreck, C. E, 1981, “An airflow apparatus for selecting female mosquitoes for use in repellent and attraction studies” Mosquito News 41: 566-568; US. Department of Agriculture, 1977, Repellent activity of compounds submitted by Walter Reed Army Institute of Research. Part 1. Protection time and minimum effective dosage against Aedes aegypti mosquitoes. Tech. Bull. No. 1549) and were placed in cages at an approximate density 200 mosquitoes/cage. Repellency was determined according to a standard protocol (Bernier, U. R., et al, 2022. “Evaluation and application of repellent-treated uniform/clothing and textiles against vector mosquitoes,” In Advances in Arthropod Repellents (pp. 69-94). Academic Press) and reported as the minimum effective dosage (MED). […] A nylon leg stocking was placed over the arm to prevent direct contact of the repellent-treated cloth patch with the skin. […]. Cloth was treated by placing a rolled bandage (50 cm^2) into each vial containing 1 mL of solution and allowing the patch to absorb the solution completely. The cloth was taped over a 4 by 9-cm opening cut into a vinyl plastic sheet that was draped around the volunteers' arms and taped in place. The cloth was air-dried approximately 15 min before conducting each test. The work reported here is an average of the MED for at least three volunteers. Each volunteer covered his or her arm with a nylon stocking to avoid contact between the skin and the treated cloth and wore a rubber glove to prevent mosquito bites on the hand.
. The minimum effective dose (MED) was determined for each repellent and subject, defined as the lowest concentration that prevents biting). MEDs from each subject were pooled and reported as the average among all replicates/subjects with SEM. A minimum of 3 replicates were performed on at least three human subjects. Written informed consent was obtained for all human subjects used in this study in accordance with IRB protocol #20193320, as approved by the WCG™ IRB.
Statistical Analyses: Student's T-test was used to compare the means between tested compound and DEET and Icaridin in the arm-in-cage in vivo assay and neurophysiological study.

`CCCCCCOC(=O)c1ccccc1` [nHB, n-hexyl benzoate]: the “30-minute RD50 compared with that of DEET” value in test [1] is “not significantly different from that of DEET”. Moreover, in test [2], the “KD50 (30 min), half-knockdown dose” value came to 7.06 µg/mL; the “KD50 (60 min), half-knockdown dose” value turned out to be 4.72 µg/mL; the “knockdown and mortality activities (in words)” value is “exhibited considerable knockdown and mortality activities”. For the same compound, in test [3], the “Minimum Effective Dose (MED)” value was over 0.187 mg/cm^2 and the “topical repellency (in words)” value is “did not show any topical repellencies”.

`CC(C)CCOC(=O)c1ccccc1` [iPeB, iso-pentyl benzoate]: the “30-minute RD50 compared with that of DEET” value in test [1] is given as “not significantly different from that of DEET”. Besides, in test [2], the “KD50 (30 min), half-knockdown dose” value is 3.71 µg/mL; the “KD50 (60 min), half-knockdown dose” value was 3.40 µg/mL; the “time at which knockdown began” value came out at 5 min; the “knockdown and mortality activities (in words)” value is “exhibited considerable knockdown and mortality activities”. Also, in test [3], the “Minimum Effective Dose (MED)” value is over 0.187 mg/cm^2 and the “topical repellency (in words)” value is “did not show any topical repellencies”.

For `CC(C)COC(=O)c1ccccc1` [iBB, iso-butyl benzoate], the “30-minute RD50 compared with that of DEET” value in test [1] is “not significantly different from that of DEET”. In test [2], the “KD50 (30 min), half-knockdown dose” value was found to be 5.26 µg/mL; the “KD50 (60 min), half-knockdown dose” value amounted to 5.29 µg/mL; the “time at which knockdown began” value was determined as 5 min; the “knockdown and mortality activities (in words)” value was “exhibited considerable knockdown and mortality activities”. In test [3], the “Minimum Effective Dose (MED)” value is over 0.187 mg/cm^2 and the “topical repellency (in words)” value is “did not show any topical repellencies”.

As for `COC(=O)c1ccccc1[N+](=O)[O-]` [M2NB, methyl 2-nitrobenzoate], in test [1], the “30-minute RD50 compared with that of DEET” value is on record as “not significantly different from that of DEET”. Further, in test [2], the “KD50 (30 min), half-knockdown dose” value is over 7 µg/mL and the “KD50 (60 min), half-knockdown dose” value is over 7 µg/mL. In test [3], the “Minimum Effective Dose (MED)” value came out at 0.025 mg/cm^2.

As for `CCCCOC(=O)c1ccccc1` [nBB, n-butyl benzoate], in test [1], the “RD50 (30 min), half-repellent dose” value is recorded as over 100 μg/cm^2; the “RD50 (60 min), half-repellent dose” value is over 100 μg/cm^2; the “spatial repellency (in words)” value was “did not show spatial repellencies”. Further, in test [2], the “KD50 (60 min), half-knockdown dose” value was determined as 3.09 µg/mL; the “time at which knockdown began” value stood at 5 min; the “knockdown and mortality activities (in words)” value is “exhibited considerable knockdown and mortality activities”. Besides, in test [3], the “Minimum Effective Dose (MED)” value is 0.148 mg/cm^2 and the “topical repellency (in words)” value is listed as “demonstrated repellency at doses lower than 0.187 mg/cm^2 on at least one test subject”.

In the case of `CC(C)OC(=O)c1ccccc1` [iPrB, iso-propyl benzoate], in test [1], the “RD50 (30 min), half-repellent dose” value was over 100 μg/cm^2; the “RD50 (60 min), half-repellent dose” value was over 100 μg/cm^2; the “spatial repellency (in words)” value is listed as “did not show spatial repellencies”. In addition, in test [3], the “Minimum Effective Dose (MED)” value was over 0.187 mg/cm^2 and the “topical repellency (in words)” value is recorded as “did not show any topical repellencies”.
